Measured values from patent US20260217767A1, “NOVEL A4B7 THIOETHER PEPTIDE DIMER ANTAGONISTS” (Protagonist Therapeutics, Inc., priority 2014, published 2026).
pIC50: −log10 of the molar value. Where a SMILES comes first, the peptide text is derived from it.

Tests used:
rh integrin α4β7 = molecular target: T1, rh integrin α4β7 (Homo sapiens, UniProt P13612+P26010); assay: α4β7-MAdCAM Competition ELISA; type: binding; conditions: thioether monomer peptides, Table 6; read-out: ELISA A4B7
T1 construct: purchased R&D Systems 5397-A30
T1 sequence (P13612 34-977 limits assumed): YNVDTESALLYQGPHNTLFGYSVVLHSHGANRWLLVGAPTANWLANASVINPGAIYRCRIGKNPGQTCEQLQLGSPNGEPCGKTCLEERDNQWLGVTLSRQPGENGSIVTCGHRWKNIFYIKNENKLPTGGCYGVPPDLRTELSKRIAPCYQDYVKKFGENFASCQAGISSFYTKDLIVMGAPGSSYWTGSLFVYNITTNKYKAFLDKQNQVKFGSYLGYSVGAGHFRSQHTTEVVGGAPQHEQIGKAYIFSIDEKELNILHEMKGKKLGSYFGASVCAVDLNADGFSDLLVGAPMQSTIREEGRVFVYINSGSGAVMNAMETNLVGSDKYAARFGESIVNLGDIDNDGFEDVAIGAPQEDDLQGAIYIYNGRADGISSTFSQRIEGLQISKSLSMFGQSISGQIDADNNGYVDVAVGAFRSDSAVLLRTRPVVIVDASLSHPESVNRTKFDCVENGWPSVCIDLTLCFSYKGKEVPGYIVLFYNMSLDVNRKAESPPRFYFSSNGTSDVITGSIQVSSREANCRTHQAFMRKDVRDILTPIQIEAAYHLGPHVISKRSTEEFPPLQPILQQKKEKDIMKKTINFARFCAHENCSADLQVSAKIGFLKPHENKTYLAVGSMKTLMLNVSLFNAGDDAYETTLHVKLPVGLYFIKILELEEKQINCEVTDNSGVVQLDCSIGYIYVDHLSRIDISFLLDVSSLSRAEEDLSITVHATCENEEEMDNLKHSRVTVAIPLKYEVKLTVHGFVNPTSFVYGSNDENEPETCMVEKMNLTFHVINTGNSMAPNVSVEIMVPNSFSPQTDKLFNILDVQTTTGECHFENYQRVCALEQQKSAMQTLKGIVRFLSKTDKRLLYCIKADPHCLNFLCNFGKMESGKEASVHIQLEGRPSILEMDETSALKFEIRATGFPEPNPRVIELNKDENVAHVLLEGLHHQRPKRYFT
T1 sequence (P26010 20-723 limits assumed): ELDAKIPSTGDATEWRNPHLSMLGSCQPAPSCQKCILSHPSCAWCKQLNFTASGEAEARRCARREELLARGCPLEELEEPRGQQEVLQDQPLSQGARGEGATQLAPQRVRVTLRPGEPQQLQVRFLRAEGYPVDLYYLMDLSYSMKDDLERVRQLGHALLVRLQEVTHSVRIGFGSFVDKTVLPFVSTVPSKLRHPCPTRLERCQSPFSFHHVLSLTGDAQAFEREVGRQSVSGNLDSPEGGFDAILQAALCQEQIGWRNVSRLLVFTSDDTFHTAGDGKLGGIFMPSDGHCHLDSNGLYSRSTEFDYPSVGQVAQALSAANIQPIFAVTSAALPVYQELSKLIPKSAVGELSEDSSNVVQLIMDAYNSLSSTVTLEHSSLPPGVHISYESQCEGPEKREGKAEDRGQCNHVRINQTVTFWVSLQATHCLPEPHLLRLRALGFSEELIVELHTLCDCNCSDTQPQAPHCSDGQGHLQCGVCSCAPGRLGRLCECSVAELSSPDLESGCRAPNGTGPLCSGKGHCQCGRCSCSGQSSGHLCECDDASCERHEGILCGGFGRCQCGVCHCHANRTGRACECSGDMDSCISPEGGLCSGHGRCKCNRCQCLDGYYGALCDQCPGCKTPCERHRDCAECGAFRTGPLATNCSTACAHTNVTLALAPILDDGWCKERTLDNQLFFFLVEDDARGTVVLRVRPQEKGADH
Procedure: α4β7-MAdCAM Competition ELISA A nickel coated plate (Pierce #15442) was coated with rh integrin α4β[…] Systems #5397-A30) at 800 ng/well and incubated at room temperature with shaking for 1 hr. The solution was then removed by shaking and blocked with assay buffer (50 mM Tris-HCl pH7.6, 150 mM NaCl, 1 mM MnCl2 or MgCl2, 0.05% Tween-20 and 0.5% BSA) at 250 ul/well. The plate was then incubated at room temperature for 1 hr. Each well was washed 3 times with wash buffer (50 mM Tris-HCl pH7.6, 100 mM NaCl, 1 mM MnCl2 or MgCl2, 0.05% Tween-20). To each well was added 25 ul of a serial dilution (3-fold dilutions in assay buffer) of peptides starting at 20 μM. 25 ul of recombinant human MAdCAM-1 (R&D Systems #6056-MC) was then added to each well at a fixed concentration 20 nM. The final starting peptide concentration was 10 μM, and the final MAdCAM-1 concentration was 10 nM. The plates were then incubated at room temperature for 1 hr to reach binding equilibrium. The wells were then washed three times with wash buffer. 50 ul of mouse anti-human IgG1-HRP (Invitrogen #A10648) diluted in 1:2000 in assay buffer was then added to each well. The wells were incubated at room temperature for 45 min with shaking. The wells were then washed 3 times with wash buffer. 100 ul of TMB were then added to each well and closely observe during development time. The reaction was stopped with 2N H2SO4 and absorbance was read at 450 nm.

[1] = Simulated Intestinal Fluid (SIF) Stability Assay; type: in vitro ADME; conditions: pig, 37° C., monomers, Table 6; for half-life at 22 μM: simulated intestinal fluid (SIF) with 1% porcine pancreatin, pH 6.5, porcine pancreatin; for half-life: porcine pancreatin
Summary of the method: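 Peptide at 22 μM final was incubated at 37° C in blank FaSSIF pH 6.5 with 1% porcine pancreatin. Timed samples were quenched in acetonitrile/methanol/formic acid with internal standard and analysed by LC-MS/MS. Half-lives came from first-order exponential fits of percent remaining.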

Structure (SMILES)	pIC50 (rh integrin α4β7)	half-life at 22 μM [1]	half-life [1]
CC(C)C[C@@H]1NC(=O)[C@H]([C@@H](C)O)NC(=O)[C@H](CC(=O)O)NC(=O)[C@H](CO)NC(=O)[C@H](CCCNC(=N)N)N(C)C(=O)C(C)SC[C@@H](C(=O)N[C@@H](Cc2c[nH]c3ccccc23)C(=O)N[C@H](CCCCN)C(N)=O)NC1=O (single isomer, unassigned) [compound 51]	7.00 to 7.60	0.1 h	–
CC(C)C[C@@H]1NC(=O)[C@H]([C@@H](C)O)NC(=O)[C@H](CC(=O)O)NC(=O)[C@H](CO)NC(=O)[C@H](CCCNC(=N)N)N(C)C(=O)CSC(C)(C)[C@@H](C(=O)N[C@@H](Cc2c[nH]c3ccccc23)C(=O)N[C@H](CCCCN)C(N)=O)NC1=O [compound 53]	6.00 to 7.00	> 3 h	–
CC(C)C[C@@H]1NC(=O)[C@H]([C@@H](C)O)NC(=O)[C@H](CC(=O)O)NC(=O)[C@H](CO)NC(=O)[C@H](CCCNC(=N)N)N(C)C(=O)CCSCC[C@@H](C(=O)N[C@@H](Cc2c[nH]c3ccccc23)C(=O)N[C@H](CCCCN)C(N)=O)NC1=O [compound 57]	6.00 to 7.00	–	< 0.333 h
CC(C)C[C@@H]1NC(=O)[C@H]([C@@H](C)O)NC(=O)[C@H](CC(=O)O)NC(=O)[C@H](CO)NC(=O)[C@H](CCCNC(=N)N)NC(=O)c2ccccc2CSC[C@@H](C(=O)N[C@@H](Cc2c[nH]c3ccccc23)C(=O)N[C@H](CCCCN)C(N)=O)NC1=O [compound 59]	6.00 to 7.00	< 0.333 h	–
CC(C)C[C@@H]1NC(=O)[C@H]([C@@H](C)O)NC(=O)[C@H](CC(=O)O)NC(=O)[C@H](CO)NC(=O)[C@H](CCCNC(=N)N)N(C)C(=O)c2ccccc2CSC(C)(C)[C@@H](C(=O)N[C@@H](Cc2c[nH]c3ccccc23)C(=O)N[C@@H](CCC(=O)O)CC(=O)N[C@H](CCCCN)C(N)=O)NC1=O [compound 61] (HELM PEPTIDE1{[meR].S.D.T.L.[Pen].W.[O=C(O)CC[C@@H](CC(=O)[*:2])N[*:1]].[dK].[am]}|CHEM1{[O=C(c1ccccc1C[*:2])[*:1]]}$PEPTIDE1,CHEM1,1:R1-1:R1|PEPTIDE1,CHEM1,6:R3-1:R2$$$V2.0)	> 7.60	> 3 h	–
CC(C)C[C@@H]1NC(=O)[C@H]([C@@H](C)O)NC(=O)[C@H](CC(=O)O)NC(=O)[C@H](CO)NC(=O)[C@H](CCCNC(=N)N)N(C)C(=O)c2ccccc2CSC(C)(C)[C@@H](C(=O)N[C@@H](Cc2c[nH]c3ccccc23)C(=O)N[C@@H](CCC(=O)O)C(=O)N(C)[C@H](CCCCN)C(N)=O)NC1=O [compound 62] (HELM PEPTIDE1{[meR].S.D.T.L.[Pen].W.E.[CN([C@H](CCCCN)C(=O)[*:2])[*:1]].[am]}|CHEM1{[O=C(c1ccccc1C[*:2])[*:1]]}$PEPTIDE1,CHEM1,1:R1-1:R1|PEPTIDE1,CHEM1,6:R3-1:R2$$$V2.0)	> 7.60	> 3 h	–
CC(C)C[C@@H]1NC(=O)[C@H]([C@@H](C)O)NC(=O)[C@H](CC(=O)O)NC(=O)[C@H](CO)NC(=O)[C@H](CCCNC(=N)N)N(C)C(=O)c2ccccc2CSC[C@H](C(=O)N[C@@H](Cc2c[nH]c3ccccc23)C(=O)N[C@@H](CCC(=O)O)CC(=O)N[C@H](CCCCN)C(N)=O)NC1=O [compound 66] (HELM PEPTIDE1{[meR].S.D.T.L.[dC].W.[O=C(O)CC[C@@H](CC(=O)[*:2])N[*:1]].[dK].[am]}|CHEM1{[O=C(c1ccccc1C[*:2])[*:1]]}$PEPTIDE1,CHEM1,1:R1-1:R1|PEPTIDE1,CHEM1,6:R3-1:R2$$$V2.0)	7.00 to 7.60	–	> 3 h
CC(C)C[C@@H]1NC(=O)[C@H]([C@@H](C)O)NC(=O)[C@H](CC(=O)O)NC(=O)[C@H](CO)NC(=O)[C@H](CCCNC(=N)N)N(C)C(=O)c2ccccc2CSCC[C@@H](C(=O)N[C@@H](Cc2c[nH]c3ccccc23)C(=O)N[C@@H](CCC(=O)O)C(=O)N[C@H](CCCCN)C(N)=O)NC1=O [compound 67] (HELM PEPTIDE1{[meR].S.D.T.L.[O=C([C@H](CCS[*:3])N[*:1])[*:2]].W.E.[dK].[am]}|CHEM1{[O=C(c1ccccc1C[*:2])[*:1]]}$PEPTIDE1,CHEM1,1:R1-1:R1|PEPTIDE1,CHEM1,6:R3-1:R2$$$V2.0)	> 7.60	–	< 0.333 h
CC(C)C[C@@H]1NC(=O)[C@H]([C@@H](C)O)NC(=O)[C@H](CC(=O)O)NC(=O)[C@H](CO)NC(=O)[C@H](CCCNC(=N)N)N(C)C(=O)c2ccccc2CSC(C)(C)[C@@H](C(=O)N[C@@H](Cc2cccc3ccccc23)C(=O)N[C@H](CCC(=O)O)C(=O)N[C@H](CCCCN)C(N)=O)NC1=O [compound 68] (HELM PEPTIDE1{[meR].S.D.T.L.[Pen].[O=C([C@H](Cc1cccc2ccccc12)N[*:1])[*:2]].[dE].[dK].[am]}|CHEM1{[O=C(c1ccccc1C[*:2])[*:1]]}$PEPTIDE1,CHEM1,1:R1-1:R1|PEPTIDE1,CHEM1,6:R3-1:R2$$$V2.0)	> 7.60	> 3 h	–
CC(C)C[C@@H]1NC(=O)[C@H]([C@@H](C)O)NC(=O)[C@H](CC(=O)O)NC(=O)[C@H](CO)NC(=O)[C@H](CCCNC(=N)N)N(C)C(=O)c2ccccc2CSC(C)(C)[C@@H](C(=O)N[C@@H](Cc2ccc3ccccc3c2)C(=O)N[C@@H](CCC(=O)O)CC(=O)N[C@H](CCCCN)C(N)=O)NC1=O [compound 70]	> 7.60	> 3 h	–
CC(C)C[C@@H]1NC(=O)[C@H]([C@@H](C)O)NC(=O)[C@H](CC(=O)O)NC(=O)[C@H](CO)NC(=O)[C@H](CCCNC(=N)N)N(C)C(=O)c2ccccc2CSC(C)(C)[C@@H](C(=O)N[C@@H](Cc2c[nH]c3ccccc23)C(=O)N[C@H](CCC(=O)O)C(=O)N[C@H](Cc2c[nH]cn2)C(N)=O)NC1=O [compound 109] (HELM PEPTIDE1{[meR].S.D.T.L.[Pen].W.[dE].[dH].[am]}|CHEM1{[O=C(c1ccccc1C[*:2])[*:1]]}$PEPTIDE1,CHEM1,1:R1-1:R1|PEPTIDE1,CHEM1,6:R3-1:R2$$$V2.0)	> 7.60	–	–
COC(=O)CC[C@H](NC(=O)[C@H](Cc1c[nH]c2ccccc12)NC(=O)[C@H]1NC(=O)[C@H](CC(C)C)NC(=O)[C@H]([C@@H](C)O)NC(=O)[C@H](CC(=O)O)NC(=O)[C@H](CO)NC(=O)[C@H](CCCNC(=N)N)N(C)C(=O)c2ccccc2CSC1(C)C)C(=O)N[C@H](CCCCN)C(N)=O [compound 115] (HELM PEPTIDE1{[meR].S.D.T.L.[Pen].W.E.[dK].[am]}|CHEM1{[CO[*:1]]}|CHEM2{[O=C(c1ccccc1C[*:2])[*:1]]}$PEPTIDE1,CHEM1,8:R3-1:R1|PEPTIDE1,CHEM2,1:R1-1:R1|PEPTIDE1,CHEM2,6:R3-1:R2$$$V2.0)	> 7.60	–	–
